Results taken from publication PMC8915595, “Revisiting the application of Immobilized Artificial Membrane (IAM) chromatography to estimate in vivo distribution properties of drug discovery compounds based on the model of marketed drugs” (ADMET & DMPK, 2020).
Like-named read-outs stand apart in the source and are kept apart here.

Columns and labels:
[1] = target: T1, human serum albumin (HSA) (Homo sapiens, UniProt P02768); assay: Protein binding on chemically bonded HSA column (Chiralpak-HSA); settings: remeasured in this study, pH 7.4
T1 sequence (P02768 25-609): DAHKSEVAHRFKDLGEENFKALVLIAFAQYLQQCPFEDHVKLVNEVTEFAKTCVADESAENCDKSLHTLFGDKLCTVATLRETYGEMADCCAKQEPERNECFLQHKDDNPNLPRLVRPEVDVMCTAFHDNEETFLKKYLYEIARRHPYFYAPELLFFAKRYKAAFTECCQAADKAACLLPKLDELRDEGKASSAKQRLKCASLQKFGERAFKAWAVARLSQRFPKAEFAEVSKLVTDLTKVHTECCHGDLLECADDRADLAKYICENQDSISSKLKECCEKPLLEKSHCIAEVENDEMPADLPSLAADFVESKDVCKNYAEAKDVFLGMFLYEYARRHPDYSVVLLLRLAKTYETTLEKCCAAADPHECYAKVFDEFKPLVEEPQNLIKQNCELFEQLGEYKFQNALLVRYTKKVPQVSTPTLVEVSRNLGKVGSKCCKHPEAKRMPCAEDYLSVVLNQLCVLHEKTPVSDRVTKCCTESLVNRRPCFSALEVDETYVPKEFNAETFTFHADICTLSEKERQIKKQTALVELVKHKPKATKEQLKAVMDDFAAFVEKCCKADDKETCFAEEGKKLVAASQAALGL
Description: Mobile phase A was 50 mM ammonium acetate adjusted to pH 7.4 and mobile phase B was 2-propanol. The flow rate was 1.5 mL/min and the run time was 6 min. The 2-propanol gradient was applied from 0 to 35% from 0 to 3.00 min and kept at 35% until 4.00 min.

[2] = cited from earlier work; for CHI (IAM) from ref [13]: reference CHI (IAM), old columns
[3] = IAM chromatography on new IAM.PC.DD2 columns (gradient HPLC, CHI (IAM)); assay type: physicochemical; parameters: key to CHI (IAM) “new” / P20511-014-3 CHI (IAM): CHI (IAM) from retention times calibrated to predefined CHI standards; settings: for P20511-014-3 CHI (IAM): new IAM.PC.DD2 column batch P20511-014-3, pH 7.4; for R20511-014-3 CHI (IAM): new IAM.PC.DD2 column batch R20511-014-3, pH 7.4; for CHI (IAM) “new” / CHI (IAM) deviation between reference and new IAM.PC.DD2 columns: system suitability test compounds; for CHI (IAM) “new”: new IAM.PC.DD2 columns, pH 7.4; for outlier in correlation of reference CHI (IAM) with CHI (IAM) on column R20511-014-3: lower CHI (IAM) on new batches, outlier if difference greater than 7.2 CHI IAM units
Description: The IAM binding was measured using IAM.PC.DD2 HPLC columns (Regis Technologies, Inc., IL, USA) with dimensions of 100 x 4.6 mm, particle size 10 μm with 300 Å pore size.
Two batches of IAM.PC.DD2 columns were studied (R20511-014-3 and P20511-014-3) that had been prepared using the new batches of silica support.
The retention times were standardized using the IAM calibration mixture, containing octanophenone, heptanophenone, hexanophenone, valerophenone, butyrophenone, propiophenone, acetophenone, acetanilide and paracetamol. The retention times of the compounds were plotted against the isocratically determined and predefined CHI (IAM) values listed in Table 1. The slope and intercept of the obtained straight line was used to calculate the CHI IAM values of new compounds.

[4] = target: T1, human serum albumin (HSA); settings: cited from earlier work
[5] = human

Structure (SMILES) | log K HSA [1] | CHI (IAM) from ref [13] [2] | P20511-014-3 CHI (IAM) [3] | R20511-014-3 CHI (IAM) [3] | CHI (IAM) “new” [3] | log K HSA from ref [13] [4] | reference log Vdss [5] | outlier in correlation of reference CHI (IAM) with CHI (IAM) on column R20511-014-3 [3] | CHI (IAM) ([2]; system suitability test compounds, CHI (IAM) reference from the literature) | CHI (IAM) deviation between reference and new IAM.PC.DD2 columns [3] | CHI (IAM) ([2]; previously published, IAM column manufactured 2004-2012)
CC(C)NCC(O)COc1cccc2ccccc12 (stereo not shown) [Propranolol] | 1.02 | 50.80 | 41.46 | 42.24 | 42.0 |  |  |  |  |  | 
CCN1CCCC1CNC(=O)c1cc(S(N)(=O)=O)ccc1OC (stereo not shown) [Sulpiride] |  | 25.50 | 16.15 | 15.80 |  | 4.84 | 0.12 | outliers |  |  | 
O=C1C(CC[S+]([O-])c2ccccc2)C(=O)N(c2ccccc2)N1c1ccccc1 (stereo not shown) [Sulfinpyrazone] | 2.66 | 26.10 | 26.89 | 26.19 |  | 3.17 |  |  |  |  | 
COc1ccc(Cc2nccc3cc(OC)c(OC)cc23)cc1OC [Papaverine] | 0.39 | 34.40 | 31.15 | 31.22 |  |  |  |  |  |  | 
COc1cc(Cc2cnc(N)nc2N)cc(OC)c1OC [Trimethoprim] | 0.95 | 20.80 | 20.52 | 20.99 |  | 4.45 |  |  |  |  | 
COc1ccc2cc(CCC(C)=O)ccc2c1 [Nabumetone] | 2.14 | 38.40 | 35.96 | 35.90 |  | 0.49 |  |  |  |  | 
CCCC1O[C@@H]2C[C@H]3[C@@H]4CCC5=CC(=O)C=C[C@]5(C)[C@H]4[C@@H](O)C[C@]3(C)[C@]2(C(=O)CO)O1 (stereo partly shown) [Budesonide] |  |  |  |  | 38 |  |  |  | 38.7 | very similar | 
Cc1noc(NS(=O)(=O)c2ccc(N)cc2)c1C [Sulfisoxazole] | 3.68 | 2.90 | 7.37 | 6.48 |  |  |  |  |  |  | 
CCN(CC)CCNC(=O)c1ccc(NC(C)=O)cc1 [Acecainide] | 0.52 | 23.30 | 17.57 | 17.72 |  | 0.69 |  |  |  |  | 
CN(C)CCCN1c2ccccc2CCc2ccccc21 [Imipramine] | 5.59 | 51.60 | 44.81 | 45.58 | 45.0 |  |  |  |  | > 5 CHI (IAM) unit | 
CC(=O)N1CCN(c2ccc(OCC3COC(Cn4ccnc4)(c4ccc(Cl)cc4Cl)O3)cc2)CC1 (stereo not shown) [Ketoconazole] |  | 42.90 | 39.26 | 39.50 |  |  |  |  |  |  | 
CC(C(=O)O)c1cccc(C(=O)c2ccccc2)c1 (stereo not shown) [Ketoprofen] |  | 21.90 | 23.89 | 22.93 | 20.0 |  |  |  |  | very similar | 21.9
CC/C(=C(\c1ccccc1)c1ccc(OCCN(C)C)cc1)c1ccccc1 [Tamoxifen] | 4.82 |  |  |  |  | 1.29 |  |  |  |  | 
CN(C)CCCN1c2ccccc2Sc2ccc(Cl)cc21 [Chlorpromazine] | 1.27 |  | 50.94 | 51.54 | 54.0 | 1.18 | 2.15 |  |  | > 5 CHI (IAM) unit | 
NC(=O)OCC(COC(N)=O)c1ccccc1 [Felbamate] | 4.15 | 19.07 | 39.21 | 39.16 |  | 3.46 |  |  |  |  | 
C[C@]12C=CC(=O)C=C1CC[C@@H]1[C@@H]2[C@@H](O)C[C@@]2(C)[C@H]1CC[C@]2(O)C(=O)CO [Prednisolone] |  | 28.00 | 27.20 | 27.31 |  |  |  |  |  |  | 
C[C@H]1C[C@H]2[C@@H]3CCC4=CC(=O)C=C[C@]4(C)[C@@]3(F)[C@@H](O)C[C@]2(C)[C@@]1(O)C(=O)CO [Betamethasone] |  | 31.70 | 30.05 | 30.18 |  |  |  |  |  |  | 
CCCCNCC(O)c1ccc(O)cc1 (stereo not shown) [Bamethan] | 0.42 |  | 18.03 | 18.53 |  |  |  |  |  |  | 
COc1cc2c(c(OC)c1OC)-c1ccc(OC)c(=O)cc1[C@@H](NC(C)=O)CC2 [Colchicine] |  | 23.70 | 23.18 | 23.45 | 23.0 |  |  |  |  |  | 

Structure (SMILES) | log K HSA [1] | CHI (IAM) from ref [13] [2] | P20511-014-3 CHI (IAM) [3] | R20511-014-3 CHI (IAM) [3] | CHI (IAM) “new” [3] | log K HSA from ref [13] [4] | reference log Vdss [5] | outlier in correlation of reference CHI (IAM) with CHI (IAM) on column R20511-014-3 [3] | CHI (IAM) ([2]; system suitability test compounds, CHI (IAM) reference from the literature) | CHI (IAM) deviation between reference and new IAM.PC.DD2 columns [3] | CHI (IAM) ([2]; previously published, IAM column manufactured 2004-2012)
CC(O)Cn1cnc2c1c(=O)n(C)c(=O)n2C (stereo not shown) [Proxyphylline] | 3.02 |  | 10.89 | 10.05 |  | 1.97 | -0.85 |  |  |  | 
CCOC(=O)C1=C(C)NC(C)=C(C(=O)OC)C1c1cccc(Cl)c1Cl (stereo not shown) [Felodipine] |  | 46.10 | 44.45 | 44.37 |  |  |  |  |  |  | 
O=c1n(CCCN2CCN(c3cccc(Cl)c3)CC2)nc2ccccn12 [Trazodone] | 3.06 | 36.30 | 33.86 | 34.09 |  | 0.8 |  |  |  |  | 
CC(CCc1ccccc1)NCC(O)c1ccc(O)c(C(N)=O)c1 (stereo not shown) [Labetalol] |  | 43.90 | 37.48 | 38.29 |  |  |  |  |  |  | 
Clc1ccc2c(c1)C(N1CCNCC1)=Nc1ccccc1O2 [Amoxapine] | 2.70 | 56.50 | 44.74 | 45.41 |  | 2.15 |  |  |  |  | 
CN(C)CCc1c[nH]c2ccc(C[C@H]3COC(=O)N3)cc12 [zolmitriptan] |  |  |  |  |  |  |  | outliers |  |  | 
O=C(CCCN1CCC(O)(c2ccc(Cl)cc2)CC1)c1ccc(F)cc1 [Haloperidol] |  |  |  |  | 48 |  |  |  |  | very similar | 
CCCc1cc(=O)[nH]c(=S)[nH]1 [Propylthiouracil] | 3.21 |  |  |  |  | 2.67 |  |  |  |  | 
Cn1c(=O)c2c(ncn2CC(O)CO)n(C)c1=O (stereo not shown) [Diprophylline] | 4.24 | -4.00 | -1.98 | -1.49 |  | 4.1 |  |  |  |  | 
CC(=O)CC(c1ccccc1)c1c(O)c2ccccc2oc1=O (stereo not shown) [Warfarin] |  |  | 24.18 | 23.47 | 24.0 |  | -0.78 |  |  | very similar | 
CCOC(=O)c1ncn2c1CN(C)C(=O)c1cc(F)ccc1-2 [Flumazenil] |  | 18.40 | 18.27 | 18.27 |  |  |  |  |  |  | 
C[C@]12CCC(=O)C=C1CC[C@@H]1[C@@H]2[C@@H](O)C[C@@]2(C)[C@H]1CC[C@]2(O)C(=O)CO [Hydrocortisone] | 2.59 | 27.90 | 27.02 | 27.23 |  |  |  |  |  |  | 
COc1ccc2c(c1)c(CC(=O)O)c(C)n2C(=O)c1ccc(Cl)cc1 [Indomethacin] |  | 25.30 | 33.16 | 32.49 | 30.0 |  | -0.96 |  |  | very similar | 
Cn1cnc2c1c(=O)[nH]c(=O)n2C [Theobromine] |  |  | -3.71 | -3.16 |  | 4.68 | -0.25 |  |  |  | 
COc1cc2nc(N3CCN(C(=O)c4ccco4)CC3)nc(N)c2cc1OC [Prazosin] |  | 31.60 | 29.35 | 29.82 |  |  |  |  |  |  | 
O=C(O)Cc1ccccc1Nc1c(Cl)cccc1Cl [Diclofenac] |  | 33.50 | 35.85 | 35.18 |  |  | -0.67 |  |  |  | 
OCCN1CCN(CCCN2c3ccccc3Sc3ccc(Cl)cc32)CC1 [Perphenazine] | 2.02 | 56.30 | 48.97 | 49.57 |  | 1.6 |  |  |  |  | 
CCN(CC)CCNC(=O)c1ccc(N)cc1 [Procainamide] | 1.67 |  | 11.89 | 11.73 |  | 0.73 |  | outliers |  |  | 
